From US4686220A, “Substituted 2-[b-substituted-amino)-ethylamino]-1,4-naphthalenediones for treating asthma, allergic diseases and inflammation in warm-blooded animals” (American Cyanamid Company, priority 1985, dated 1987)
Structures can show the parent of a compound that is named as a salt. Where two headings read alike, the source gives them in different places.

Target: T1, Neutrophil Lipoxygenase (Cavia porcellus, UniProt A0A286X958)
T1 construct: endogenous in cells; host or cells: guinea pig peritoneal neutrophils
T1 sequence (A0A286X958 1-674): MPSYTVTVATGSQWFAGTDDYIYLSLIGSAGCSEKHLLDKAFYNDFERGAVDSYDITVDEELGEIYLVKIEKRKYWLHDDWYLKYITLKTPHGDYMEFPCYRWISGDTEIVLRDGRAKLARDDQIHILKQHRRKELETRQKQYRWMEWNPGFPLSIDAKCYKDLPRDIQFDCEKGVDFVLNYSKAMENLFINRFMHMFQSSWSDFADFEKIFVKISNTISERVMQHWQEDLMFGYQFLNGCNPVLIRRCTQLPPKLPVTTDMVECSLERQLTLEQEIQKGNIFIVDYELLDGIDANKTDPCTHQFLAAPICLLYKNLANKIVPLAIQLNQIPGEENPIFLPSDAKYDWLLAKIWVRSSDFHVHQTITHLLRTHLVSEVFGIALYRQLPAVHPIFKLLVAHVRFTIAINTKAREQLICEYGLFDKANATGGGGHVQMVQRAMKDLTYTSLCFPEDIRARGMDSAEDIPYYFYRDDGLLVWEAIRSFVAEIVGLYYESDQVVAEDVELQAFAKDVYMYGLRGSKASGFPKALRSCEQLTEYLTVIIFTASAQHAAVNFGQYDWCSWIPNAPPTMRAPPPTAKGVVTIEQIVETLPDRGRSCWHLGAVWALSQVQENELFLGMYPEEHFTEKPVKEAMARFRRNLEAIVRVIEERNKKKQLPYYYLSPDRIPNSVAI
Assay: Inhibition of Neutrophil Lipoxygenase from Immunologically Stimulated Guinea Pig Neutrophiles (LTB4 and 5-HETE)
Type: cell-based
Settings: 10 μg/ml, 100 μM arachidonic acid and 20 μM A23187, the lower the percentage, the more active
Experimental: In this assay 3×10^7 peritoneal neutrophils derived from guinea pigs were incubated at 37° C. in Dulbeccos buffer containing 50 mM tris buffer (pH 7.4). Five minutes before the addition of 100 μM arachidonic acid and 20 μM calcium ionophore (A23187), control vehicle or the test compounds were added to the neutrophils at a concentration of 10 μg/ml. Three minutes after the addition of arachidonic acid and calcium ionophore the total lipid was partitioned into chloroform after adjusting the pH to 3 with citric acid and the addition of equal parts of methanol and chloroform. The 5-HETE and LTB4 were resolved by HPLC using a 5 μM, 4×25 cm octadecyl silica column (IBM Instruments) with 70-80% methanol in water adjusted to pH 3.0 with acetic acid. As the mobile phase was pumped at 1.0 ml/minute, LTB4 and 5-HETE were detected by absorbance at 270 and 236 nm, respectively. LTB4 and 5-HETE were quantitated by comparison with the control and the results were expressed as a percent of control.

SMILES	remaining activity at 10 µg/mL (read-out: 5-HETE, % of Control) [%]	remaining activity at 10 µg/mL (read-out: LTB4, % of Control) [%]
O=C1C(Cl)=C(N2CCN(c3ccc4ccccc4n3)CC2)C(=O)c2ccccc21 [Example 10, 2-chloro-3-[4-(2-quinolinyl)-1-piperazinyl]-1,4-naphthalenedione, hydrochloride]	0	0
O=C1C(Cl)=C(N2CCN(Cc3ccc4c(c3)OCO4)CC2)C(=O)c2ccccc21 [Example 11, 2-[4-(1,3-benzodioxol-5-ylmethyl)-1-piperazinyl]-3-chloro-1,4-naphthalenedione, hydrochloride]	0	0
O=C1C(Cl)=C(N2CCN(c3ncccn3)CC2)C(=O)c2ccccc21 [Example 12, 2-chloro-3-[4-(2-pyrimidinyl)-1-piperazinyl]-1,4-naphthalenedione]	34.3	–
CC(=O)NC1=C(N2CCN(c3nc4ccccc4s3)CC2)C(=O)c2ccccc2C1=O [Example 23, N-[3-[4-(2-benzothiazolyl)-1-piperazinyl]-1,4-dihydro-1,4-dioxo-2-naphthalenyl]acetamide]	0	0
CC(=O)NC1=C(N2CCN(c3cccc(C(F)(F)F)c3)CC2)C(=O)c2ccccc2C1=O [Example 28, N-[1,4-dihydro-1,4-dioxo-3-[4-[3-(trifluoromethyl)phenyl]-1-piperazinyl]-2-naphthalenyl]acetamide]	0.3	–
O=C1C(Cl)=C(N2CCN(C(=O)Nc3ccccc3Cl)CC2)C(=O)c2ccccc21 [Example 29, 4-(3-Chloro-1,4-dihydro-1,4-dioxo-2-naphthalenyl)-N-(2-chlorophenyl)-1-piperazinecarboxamide]	19.9	22.2
O=C1C(Cl)=C(N2CCN(C(=O)Nc3ccccc3F)CC2)C(=O)c2ccccc21 [Example 30, 4-(3-chloro-1,4-dihydro-1,4-dioxo-2-naphthalenyl)-N-(2-fluorophenyl)-1-piperazinecarboxamide]	2	0
O=C1C(Cl)=C(N2CCN(C(=O)Nc3cccc(C(F)(F)F)c3)CC2)C(=O)c2ccccc21 [Example 31, 4-(3-chloro-1,4-dihydro-1,4-dioxo-2-naphthalenyl)-N-[3-(trifluoromethyl)phenyl]-1-piperazinecarboxamide]	0	–
O=C1C(Cl)=C(N2CCN(C(=O)Nc3ccc(Cl)cc3)CC2)C(=O)c2ccccc21 [Example 32, 4-(3-chloro-1,4-dihydro-1,4-dioxo-2-naphthalenyl)-N-(4-chlorophenyl)-1-piperazinecarboxamide]	1.4	–
CCCCc1ccc(C(=O)N2CCN(C3=C(Cl)C(=O)c4ccccc4C3=O)CC2)cc1 [Example 35, 1-(4-butylbenzoyl)-4-(3-chloro-1,4-dihydro-1,4-dioxo-2-naphthalenyl)piperazine]	13.7	23.2
CCOC(=O)N1CCN(C2=C(C)C(=O)c3ccccc3C2=O)CC1 [Example 41, 4-(1,4-Dihydro-3-methyl-1,4-dioxo-2-naphthalenyl)-1-piperazinecarboxylic acid, ethyl ester]	2.2	–
CC1=C(N2CCN(c3nc4ccccc4s3)CC2)C(=O)c2ccccc2C1=O [Example 42, 2-[4-(2-benzothiazolyl)-1-piperazinyl]-3-methyl-1,4-naphthalenedione]	0.8	20.8
CC1=C(N2CCN(Cc3ccccc3)CC2)C(=O)c2ccccc2C1=O [Example 43, 2-methyl-3-[4-(phenylmethyl)-1-piperazinyl]-1,4-naphthalenedione]	0.7	4.8
CC1=C(N2CCN(c3ccccn3)CC2)C(=O)c2ccccc2C1=O [Example 44, 2-methyl-3-[4-(2-pyridinyl)-1-piperazinyl]-1,4-naphthalenedione]	0	0
CC1=C(N2CCN(c3cccc(C(F)(F)F)c3)CC2)C(=O)c2ccccc2C1=O [Example 45, 2-methyl-3-[4-[3-(trifluoromethyl)phenyl]-1-piperazinyl]-1,4-naphthalenedione]	0	–
O=C1C(Cl)=C(N2CCCN(c3nc4ccccc4s3)CC2)C(=O)c2ccccc21 [Example 52, 2-[4-(2-Benzothiazolyl)hexahydro-1H-diazepin-1-yl]-3-chloro-1,4-naphthalenedione]	1.1	–
CC1=C(N2CCN(C(=O)Nc3ccc(Cl)cc3)CC2)C(=O)c2ccccc2C1=O [Example 54, N-(4-Chlorophenyl)-4-(1,4-dihydro-3-methyl-1,4-dioxo-2-naphthalenyl)-1-piperazinecarboxamide]	8.8	–
O=C1C(Cl)=C(N2CCN(c3nc4ccccc4o3)CC2)C(=O)c2ccccc21 [Example 55, 2-[4-(2-Benzoxazolyl)-1-piperazinyl]-3-chloro-1,4-naphthalenedione]	19.6	13.5
CC1CN(C2=C(Cl)C(=O)c3ccccc3C2=O)CCN1C(=O)Nc1cccc(Cl)c1 (stereo not drawn) [Example 58, 4-(3-Chloro-1,4-dihydro-1,4-dioxo-2-naphthalenyl)-N-(3-chlorophenyl)-2-methyl-1-piperazinecarboxamide]	25.7	15.2
